In brackets after ≈: the same amount, converted by molar mass.
What was measured:
Format in all cases: physicochemical
[1] = Interconversion study: competitive slurry of Form A and B; details: from RT to 50° C.
Protocol: An interconversion study of crystal forms was performed. To understand the thermodynamic stability relationship between Form A and B, competitive slurry experiments were performed at RT and 50° C. in water and toluene. Prior to the study, Form A was used to saturate the corresponding solvent before it was filtered to obtain a near-saturated solution. Equal amounts of Form A and B samples were weighed and then mixed with the prepared near-saturated solution to form a new suspension, which was stirred magnetically (˜1000 rpm) at RT and 50° C.

[2] = Solution stability test of Form A in physiologically relevant media at 37° C.; set-up: unit not given here
Protocol: A solution stability test of Form A was performed to assess substantial degradation of (R)-5-carbamoylpyridin-3-yl-2-methyl-4-(3-(trifluoromethoxy)benzyl)piperazine-1-carboxylate in physiologically relevant media. A solution of (R)-5-carbamoylpyridin-3-yl-2-methyl-4-(3-(trifluoromethoxy)benzyl)piperazine-1-carboxylate (1 mg/mL) was prepared in acetonitrile/water (50/50 v/v). Test medium (1990 μL) was added to a vial. Test media evaluated included buffers pH 1-8, simulated gastric fluid (SGF), fasted state simulated intestinal fluid (FaSSIF), and fed state simulated intestinal fluid (FeSSIF). Stock solution (10 μL) was added to the vial containing the medium. This mixture was stirred to mix well and transferred to a HPLC vial, which was placed in the autosampler maintained at 37° C. The vial was injected repeatedly every 4 hr for 24 hr.

[3] = pKa detection by Sirius T3; details: Sirius T3, range 2.0 to 12.0, in triplicate; read-out: Measured pKa value
Protocol: (§1) A summary of baseline solid state characterization results of crystalline (R)-5-carbamoylpyridin-3-yl-2-methyl-4-(3-(trifluoromethoxy)benzyl)piperazine-1-carboxylate Form A, including pKa, partition coefficient (log D7.4) measurement and 2-hrs equilibrium solubility in FaSSIF and FeSSIF (version 2) are provided herein. […] Log D7.4 was measured with the solvent system of pH 7.4 phosphate buffer and n-octanol by shake-flask method. Meanwhile, 2-hrs equilibrium solubility of (R)-5-carbamoylpyridin-3-yl-2-methyl-4-(3-(trifluoromethoxy)benzyl)piperazine-1-carboxylate in FaSSIF and FeSSIF (version 2) was measured to be 0.12 and 0.080 mg/mL.

[4] = Log D7.4 by shake-flask method (pH 7.4 phosphate buffer and n-octanol); details: n-octanol/pH 7.4 phosphate buffer
Protocol: as §1

[5] = 2-hrs equilibrium solubility in FaSSIF and FeSSIF (version 2); details: thermodynamic from solid
Protocol: as §1

Compound: C[C@@H]1CN(Cc2cccc(OC(F)(F)F)c2)CCN1C(=O)Oc1cncc(C(N)=O)c1 [Form A, (R)-5-carbamoylpyridin-3-yl-2-methyl-4-(3-(trifluoromethoxy)benzyl)piperazine-1-carboxylate]
- Thermodynamic stability relationship between Form A and B [1]: thermodynamically more stable than Form B
- Solution chemical stability data ([2]; FaSSIF, 37° C., 0 hr): 100.0
- Solution chemical stability data ([2]; FaSSIF, 37° C., 4 hr): 100.6
- Solution chemical stability data ([2]; FaSSIF, 37° C., 8 hr): 100.2
- Solution chemical stability data ([2]; FaSSIF, 37° C., 12 hr): 100.5
- Solution chemical stability data ([2]; FaSSIF, 37° C., 16 hr): 100.3
- Solution chemical stability data ([2]; FaSSIF, 37° C., 20 hr): 100.0
- Solution chemical stability data ([2]; FaSSIF, 37° C., 24 hr): 100.0
- Solution chemical stability data ([2]; FeSSIF, 37° C., 0 hr): 100.0
- Solution chemical stability data ([2]; FeSSIF, 37° C., 4 hr): 99.6
- Solution chemical stability data ([2]; FeSSIF, 37° C., 8 hr): 100.2
- Solution chemical stability data ([2]; FeSSIF, 37° C., 12 hr): 99.7
- Solution chemical stability data ([2]; FeSSIF, 37° C., 16 hr): 99.6
- Solution chemical stability data ([2]; FeSSIF, 37° C., 20 hr): 99.8
- Solution chemical stability data ([2]; FeSSIF, 37° C., 24 hr): 99.7
- Solution chemical stability data ([2]; SGF, 37° C., 0 hr): 100.0
- Solution chemical stability data ([2]; SGF, 37° C., 4 hr): 100.2
- Solution chemical stability data ([2]; SGF, 37° C., 8 hr): 100.1
- Solution chemical stability data ([2]; SGF, 37° C., 12 hr): 99.2
- Solution chemical stability data ([2]; SGF, 37° C., 16 hr): 99.7
- Solution chemical stability data ([2]; SGF, 37° C., 20 hr): 100.4
- Solution chemical stability data ([2]; SGF, 37° C., 24 hr): 99.6
- Solution chemical stability data ([2]; pH = 1, 37° C., 0 hr): 100.0
- Solution chemical stability data ([2]; pH = 1, 37° C., 4 hr): 99.6
- Solution chemical stability data ([2]; pH = 1, 37° C., 8 hr): 100.3
- Solution chemical stability data ([2]; pH = 1, 37° C., 12 hr): 100.3
- Solution chemical stability data ([2]; pH = 1, 37° C., 16 hr): 99.9
- Solution chemical stability data ([2]; pH = 1, 37° C., 20 hr): 101.9
- Solution chemical stability data ([2]; pH = 1, 37° C., 24 hr): 100.5
- Solution chemical stability data ([2]; pH = 3, 37° C., 0 hr): 100.0
- Solution chemical stability data ([2]; pH = 3, 37° C., 4 hr): 99.8
- Solution chemical stability data ([2]; pH = 3, 37° C., 8 hr): 99.8
- Solution chemical stability data ([2]; pH = 3, 37° C., 12 hr): 98.5
- Solution chemical stability data ([2]; pH = 3, 37° C., 16 hr): 99.3
- Solution chemical stability data ([2]; pH = 3, 37° C., 20 hr): 99.6
- Solution chemical stability data ([2]; pH = 3, 37° C., 24 hr): 99.5
- Solution chemical stability data ([2]; pH = 5.0, 37° C., 0 hr): 100.0
- Solution chemical stability data ([2]; pH = 5.0, 37° C., 4 hr): 100.9
- Solution chemical stability data ([2]; pH = 5.0, 37° C., 8 hr): 101.7
- Solution chemical stability data ([2]; pH = 5.0, 37° C., 12 hr): 99.9
- Solution chemical stability data ([2]; pH = 5.0, 37° C., 16 hr): 100.7
- Solution chemical stability data ([2]; pH = 5.0, 37° C., 20 hr): 99.9
- Solution chemical stability data ([2]; pH = 5.0, 37° C., 24 hr): 99.6
- Solution chemical stability data ([2]; pH = 6.8, 37° C., 0 hr): 100.0
- Solution chemical stability data ([2]; pH = 6.8, 37° C., 4 hr): 100.2
- Solution chemical stability data ([2]; pH = 6.8, 37° C., 8 hr): 100.8
- Solution chemical stability data ([2]; pH = 6.8, 37° C., 12 hr): 100.1
- Solution chemical stability data ([2]; pH = 6.8, 37° C., 16 hr): 100.0
- Solution chemical stability data ([2]; pH = 6.8, 37° C., 20 hr): 99.6
- Solution chemical stability data ([2]; pH = 6.8, 37° C., 24 hr): 99.0
- Solution chemical stability data ([2]; pH = 8.0, 37° C., 0 hr): 100.0
- Solution chemical stability data ([2]; pH = 8.0, 37° C., 4 hr): 101.3
- Solution chemical stability data ([2]; pH = 8.0, 37° C., 8 hr): 100.5
- Solution chemical stability data ([2]; pH = 8.0, 37° C., 12 hr): 99.7
- Solution chemical stability data ([2]; pH = 8.0, 37° C., 16 hr): 100.1
- Solution chemical stability data ([2]; pH = 8.0, 37° C., 20 hr): 98.7
- Solution chemical stability data ([2]; pH = 8.0, 37° C., 24 hr): 99.4
- pKa [3]: 5.79
- logD [4]: 3.76
- solubility thermodynamic at 2 h ([5]; FaSSIF (version 2), fassif): 120 µg/mL (≈ 274 µM)
- solubility thermodynamic at 2 h ([5]; FeSSIF (version 2), fessif): 80 µg/mL (≈ 182 µM)

Source: patent US12410133B2, “Crystalline (r)-5-carbamoylpyridin-3-yl-2-methyl-4-(3-(trifluoromethoxy)benzyl)piperazine-1-carboxylate, compositions and methods of use thereof” (Celgene Corporation, priority 2018, dated 2025)
